Measurements from PubChem BioAssay AID248 (DTP/NCI, 2004).
Values joined by “and” are separate entries in the source; they are usually repeats but may differ in a detail not shown here. Identical values can stand only once. Inconclusive results and toxic doses are left out. Rule as the data show it: active = T/C of 150% or more; inactive = T/C below 125%.

Test system: L1210 leukemia ip in BDF1 mice, survival T/C
Assay: NCI In Vivo Anticancer Drug Screen. Data for tumor model L1210 Leukemia (intraperitoneal) in B6D2F1 (BDF1) mice
Conditions: endpoint: mean survival time, higher = longer survival
How it was run: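 Antitumor effect is assessed in tumor-bearing animals. Survival in the compound arm is compared with a vehicle-dosed control arm and expressed as their quotient.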

[1] = dose: 50.0 mg/kg/injection, schedule: Q01DX009 (ip), vehicle: saline with Tween-80
[2] = dose: 100.0 mg/kg/injection, schedule: Q01DX009 (ip), vehicle: Klucel (hydroxypropylcellulose) (HPC)
[3] = dose: 200.0 mg/kg/injection, schedule: Q01DX009 (ip), vehicle: Klucel (hydroxypropylcellulose) (HPC)
[4] = dose: 400.0 mg/kg/injection, schedule: Q01DX009 (ip), vehicle: Klucel (hydroxypropylcellulose) (HPC)
[5] = dose: 25.0 mg/kg/injection, schedule: Q01DX009 (ip), vehicle: saline
[6] = dose: 50.0 mg/kg/injection, schedule: Q01DX009 (ip), vehicle: saline
[7] = dose: 100.0 mg/kg/injection, schedule: Q04DX003 (ip), vehicle: saline
[8] = dose: 200.0 mg/kg/injection, schedule: Q04DX003 (ip), vehicle: saline
[9] = dose: 400.0 mg/kg/injection, schedule: Q04DX003 (ip), vehicle: saline
[10] = dose: 25.0 mg/kg/injection, schedule: Q01DX009 (ip), vehicle: saline with Tween-80
[11] = dose: 400.0 mg/kg/injection, schedule: Q04DX002 (ip), vehicle: saline with Tween-80
[12] = dose: 100.0 mg/kg/injection, schedule: Q01DX009 (ip), vehicle: saline with Tween-80
[13] = dose: 200.0 mg/kg/injection, schedule: Q01DX009 (ip), vehicle: saline with Tween-80
[14] = dose: 100.0 mg/kg/injection, schedule: Q01DX001 (ip), vehicle: saline
[15] = dose: 200.0 mg/kg/injection, schedule: Q01DX001 (ip), vehicle: saline
[16] = dose: 400.0 mg/kg/injection, schedule: Q01DX001 (ip), vehicle: saline
[17] = dose: 100.0 mg/kg/injection, schedule: Q04DX003 (ip), vehicle: saline with Tween-80
[18] = dose: 200.0 mg/kg/injection, schedule: Q04DX003 (ip), vehicle: saline with Tween-80
[19] = dose: 400.0 mg/kg/injection, schedule: Q01DX009 (ip), vehicle: saline with Tween-80
[20] = dose: 400.0 mg/kg/injection, schedule: Q04DX003 (ip), vehicle: saline with Tween-80

Measured: T/C

CN1C(=O)C(C)(C)C(=O)c2ccccc21
inactive: dose: 100.0 mg/kg/injection, schedule: Q04DX002 (ip), vehicle: other 90 % of control | dose: 200.0 mg/kg/injection, schedule: Q04DX002 (ip), vehicle: other 100 % of control | dose: 400.0 mg/kg/injection, schedule: Q04DX002 (ip), vehicle: other 97 % of control

OC(c1ccccc1)(c1ccccc1)c1ccncc1
inactive: [1] 96 % of control

CCOC(=O)c1[nH]c2c(c1CC(CC)[N+](=O)[O-])CCCC2 (stereo unspecified)
inactive: [2] 96 % of control | dose: 100.0 mg/kg/injection, schedule: Q04DX003 (ip), vehicle: Klucel (hydroxypropylcellulose) (HPC) 93 % of control | [3] 98 % of control | dose: 200.0 mg/kg/injection, schedule: Q04DX003 (ip), vehicle: Klucel (hydroxypropylcellulose) (HPC) 93 % of control | [4] 101 % of control | dose: 400.0 mg/kg/injection, schedule: Q04DX003 (ip), vehicle: Klucel (hydroxypropylcellulose) (HPC) 95 % of control

CCn1cc(C(=O)O)c(=O)c2cc(OC)c3ccccc3c21
inactive: dose: 50.0 mg/kg/injection, schedule: Q04DX002 (ip), vehicle: Klucel (hydroxypropylcellulose) (HPC) 92 % of control | dose: 100.0 mg/kg/injection, schedule: Q04DX002 (ip), vehicle: Klucel (hydroxypropylcellulose) (HPC) 103 % of control

Cc1ccccc1OCC(O)CO (stereo unspecified)
inactive: [5] 95 % of control | dose: 25.0 mg/kg/injection, schedule: Q04DX003 (ip), vehicle: saline 101 % of control | [6] 93 % of control | dose: 50.0 mg/kg/injection, schedule: Q04DX003 (ip), vehicle: saline 95 % of control | dose: 100.0 mg/kg/injection, schedule: Q01DX009 (ip), vehicle: saline 102 % of control | [7] 95 % of control | dose: 200.0 mg/kg/injection, schedule: Q01DX009 (ip), vehicle: saline 102 % of control | [8] 111 % of control | dose: 400.0 mg/kg/injection, schedule: Q01DX009 (ip), vehicle: saline 98 % of control | [9] 123 % of control

CC1(C)c2ccccc2C(=O)/C(=C/c2ccccc2)C1NC1CCCCC1 (stereo unspecified)
inactive: dose: 100.0 mg/kg/injection, schedule: Q01DX001 (ip), vehicle: Klucel (hydroxypropylcellulose) (HPC) 95 % of control | [2] 102 % of control | dose: 200.0 mg/kg/injection, schedule: Q01DX001 (ip), vehicle: Klucel (hydroxypropylcellulose) (HPC) 93 % of control | [3] 96 % of control | dose: 400.0 mg/kg/injection, schedule: Q01DX001 (ip), vehicle: Klucel (hydroxypropylcellulose) (HPC) 92 % of control | [4] 106 % of control

CCO/C=C1\SC(=S)N(c2ccc(C(=O)O)cc2)C1=O
inactive: [10] 108 % of control | [1] 100 % of control | dose: 100.0 mg/kg/injection, schedule: Q01DX009 (ip), vehicle: saline sonified 97 % of control | dose: 100.0 mg/kg/injection, schedule: Q04DX003 (ip), vehicle: saline sonified 99 % of control | dose: 200.0 mg/kg/injection, schedule: Q04DX003 (ip), vehicle: saline sonified 102 % of control | dose: 400.0 mg/kg/injection, schedule: Q04DX003 (ip), vehicle: saline sonified 108 % of control

O=S1(=O)CC23C=CC=CC2(CCCC3)C1Cl (stereo unspecified)
inactive: dose: 25.0 mg/kg/injection, schedule: Q01DX009 (ip), vehicle: Klucel (hydroxypropylcellulose) (HPC) 94 % of control | dose: 50.0 mg/kg/injection, schedule: Q01DX009 (ip), vehicle: Klucel (hydroxypropylcellulose) (HPC) 102 % of control | [2] 94 % of control

OCC(O)C(O)C(O)/C=N\O (stereo unspecified)
inactive: [7] 107 % of control | [8] 107 % of control | [9] 100 % of control

CC(=O)N(c1ccncc1)c1ccc(NC(=O)c2ccc(N3C(=O)c4ccccc4C3=O)cc2[N+](=O)[O-])cc1
inactive: dose: 25.0 mg/kg/injection, schedule: Q04DX002 (ip), vehicle: saline with Tween-80 93 % of control and 102 % of control | [11] 96 % of control and 88 % of control

O=C(CCC1c2ccccc2C(=O)c2ccccc21)c1ccccc1
inactive: [1] 108 % of control | [12] 97 % of control | [13] 101 % of control

CCCCCCCCOC(=O)Nc1ccc(S(=O)(=O)CC)cc1
inactive: dose: 100.0 mg/kg/injection, schedule: Q01DX001 (ip), vehicle: carboxymethylcellulose (CMC) 91 % of control | dose: 200.0 mg/kg/injection, schedule: Q01DX001 (ip), vehicle: carboxymethylcellulose (CMC) 89 % of control | dose: 400.0 mg/kg/injection, schedule: Q01DX001 (ip), vehicle: carboxymethylcellulose (CMC) 89 % of control

CCOC(=O)NCc1ccc(Cl)c(C(=O)O)c1
inactive: [14] 105 % of control | [7] 88 % of control | [15] 94 % of control | [8] 101 % of control | [16] 93 % of control | [9] 93 % of control

COc1ccc(OC)c(NC(=O)NNC(=O)c2ccc(Cl)cc2)c1
inactive: [10] 95 % of control | [1] 94 % of control | [12] 92 % of control

NC(=O)C(Br)CBr (stereo unspecified)
inactive: [5] 98 % of control | [6] 95 % of control | [7] 101 % of control

CCSC(=S)SCC(=O)O
inactive: [17] 107 % of control | [18] 92 % of control

CC(CNC(=O)OCc1ccccc1)C(=O)O (stereo unspecified)
inactive: dose: 100.0 mg/kg/injection, schedule: Q01DX001 (ip), vehicle: saline with Tween-80 95 % of control | [12] 105 % of control and 117 % of control | dose: 100.0 mg/kg/injection, schedule: Q04DX002 (ip), vehicle: saline with Tween-80 103 % of control | [17] 96 % of control | dose: 200.0 mg/kg/injection, schedule: Q01DX001 (ip), vehicle: saline with Tween-80 93 % of control | [13] 105 % of control and 86 % of control | dose: 200.0 mg/kg/injection, schedule: Q04DX002 (ip), vehicle: saline with Tween-80 100 % of control | [18] 91 % of control | dose: 400.0 mg/kg/injection, schedule: Q01DX001 (ip), vehicle: saline with Tween-80 96 % of control | [19] 94 % of control and 105 % of control | [11] 110 % of control | [20] 95 % of control

CCOC(=O)C(CC(C(=O)OCC)C(=O)c1ccccc1)C(=O)c1ccccc1 (stereo unspecified)
inactive: [14] 92 % of control | [15] 90 % of control | [16] 97 % of control

O=C(Nc1ccccc1F)Oc1ccc(C2CCCCC2)cc1
inactive: [12] 104 % of control | [13] 104 % of control | [19] 101 % of control

O=C(N/N=C\c1ccc(N(CCCl)CCCl)cc1[N+](=O)[O-])c1cccnc1
inactive: dose: 50.0 mg/kg/injection, schedule: Q01DX001 (ip), vehicle: saline 94 % of control | [14] 113 % of control | [15] 92 % of control

O=C1Oc2ccccc2C(=O)Oc2ccccc2C(=O)Oc2ccccc2C(=O)Oc2ccccc21
inactive: dose: 75.0 mg/kg/injection, schedule: Q01DX001 (ip), vehicle: saline 87 % of control

CCC(C)(O)CCCC(C)C (stereo unspecified)
inactive: [7] 97 % of control | [8] 100 % of control | [9] 92 % of control

C/C(=C\Cl)CN(C)C
inactive: [17] 97 % of control | [18] 94 % of control

O=N[O-].O=N[O-].O=N[O-].O=N[O-].O=N[O-].O=N[O-].[Ni]
inactive: dose: 25.0 mg/kg/injection, schedule: Q04DX002 (ip), vehicle: saline 106 % of control | dose: 50.0 mg/kg/injection, schedule: Q04DX002 (ip), vehicle: saline 113 % of control | dose: 100.0 mg/kg/injection, schedule: Q04DX002 (ip), vehicle: saline 106 % of control

CCCCS.[Pb]
inactive: [17] 95 % of control | [18] 95 % of control | [20] 96 % of control

NS(=O)(=O)Cl
inactive: dose: 100.0 mg/kg/injection, schedule: Q01DX009 (sc), vehicle: olive oil, sesame oil, peanut oil 98 % of control | dose: 100.0 mg/kg/injection, schedule: Q04DX003 (sc), vehicle: olive oil, sesame oil, peanut oil 102 % of control | dose: 200.0 mg/kg/injection, schedule: Q01DX009 (sc), vehicle: olive oil, sesame oil, peanut oil 100 % of control | dose: 200.0 mg/kg/injection, schedule: Q04DX003 (sc), vehicle: olive oil, sesame oil, peanut oil 103 % of control | dose: 400.0 mg/kg/injection, schedule: Q01DX009 (sc), vehicle: olive oil, sesame oil, peanut oil 95 % of control | dose: 400.0 mg/kg/injection, schedule: Q04DX003 (sc), vehicle: olive oil, sesame oil, peanut oil 108 % of control
